The results in this text go back to ChEMBL document CHEMBL4376882, “Photodynamic Therapy for ras-Driven Cancers: Targeting G-Quadruplex RNA Structures with Bifunctional Alkyl-Modified Porphyrins” (J Med Chem, 2020).

Structures are written as SMILES. pKd: −log10 of the molar value. Calls of active or inactive are those of the source. No cut-off for these calls is given here.

Data set [1] can be described thus: Drug uptake in mouse NIH/3T3 cells at 5 uM and 4 degree C after 16 hrs by FACS analysis relative to 37 degree C. The class given is ADME, cell-based. The note with it: nih3t3, 16 h. Background: Flow cytometry measures light scatter and fluorescence of single cells or particles in a stream.
The target of another data set is Quadruplex DNA. The data set can be described thus: Binding affinity to NRAS RNA g-quadruplex (unknown origin) by fluorescence spectroscopy. The format is nucleic-acid assay.
Data set [2] in a line: Induction of ROS-mediated […] labelled 20-mer utr-c stem-loop RNA (unknown origin) degradation at 0.6 uM incubated for 30 mins followed by photoirradiation for 15 to 30 mins by PAGE analysis.
A short description of data set [3]: Induction of ROS-mediated Cys5.5 labelled utr-z RNA duplex (unknown origin) degradation at 0.6 uM incubated for 30 mins followed by photoirradiation for 15 to 30 mins by PAGE analysis.
The target of data set [4] is GTPase NRas (Homo sapiens) (UniProt P01111). The data set can be described thus: Inhibition of NRAS in human PANC1 cells assessed as decrease in NRAS mRNA level at 15 nM followed by 7.2 J/cm2 irradiation after 4 hrs by qRT-PCR analysis. The format is cell-based.
The target in data set [5] is GTPase KRas (Homo sapiens) (UniProt P01116). The data set can be described thus: Inhibition of KRAS in human PANC1 cells assessed as downregulation of KRAS expression at 15 nM after 4 hrs by Western blot analysis. The class given is cell-based.
For data set [6], the system named is PANC-1. The data set can be described thus: Induction of apoptosis in human PANC1 cells assessed as viable cells at 5 nM and photoirradiated at 7.2 J/cm2 measured after 6 to 24 hrs by annexin-V-propidium iodide staining based FACScalibur flow cytometry analysis (reference value: 91.9 %). The class given is functional. The note with it: PANC-1, light or radiation study, read-out: Activity.

Data set [7] deals with PANC-1. The data set can be described thus: Induction of apoptosis in human PANC1 cells assessed as early apoptotic cells at 15 nM and photoirradiated at 7.2 J/cm2 measured after 6 to 24 hrs by annexin-V-propidium iodide staining based FACScalibur flow cytometry analysis (reference value: 4.6 %). The format is functional.

GTPase NRas (Homo sapiens), sequence (P01111 whole entry): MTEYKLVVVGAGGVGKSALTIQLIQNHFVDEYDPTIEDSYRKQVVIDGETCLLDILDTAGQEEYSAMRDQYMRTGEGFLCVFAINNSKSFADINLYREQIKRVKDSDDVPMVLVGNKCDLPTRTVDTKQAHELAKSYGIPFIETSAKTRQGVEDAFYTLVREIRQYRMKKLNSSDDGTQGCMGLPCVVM
GTPase KRas (Homo sapiens), sequence (P01116 whole entry, looked up): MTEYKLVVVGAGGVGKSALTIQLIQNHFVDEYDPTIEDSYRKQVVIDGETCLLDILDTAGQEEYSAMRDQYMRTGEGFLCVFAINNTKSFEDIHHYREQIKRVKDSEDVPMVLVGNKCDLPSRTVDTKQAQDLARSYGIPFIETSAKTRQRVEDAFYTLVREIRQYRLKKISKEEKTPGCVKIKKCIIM

Broadly, the pKd is −log10 of the Kd, conventionally taken in molar units. Consider `CCCCCCCCCCCCCC[n+]1ccc(-c2c3nc(c(-c4cc[n+](C)cc4)c4ccc([nH]4)c(-c4cc[n+](C)cc4)c4nc(c(-c5cc[n+](C)cc5)c5ccc2[nH]5)C=C4)C=C3)cc1.[I-].[I-].[I-].[I-]`, for which, in data set [1], the Drug uptake entry is recorded as “Active”. The same compound gave a pKd at Quadruplex DNA of 6.97. Moreover, the outcome in data set [2] and in data set [3] was inactive. Further, the inhibition entry in data set [4] is “Active”. For the same compound, in data set [5], the inhibition result is “inactive”. The viability at 0.005 µM in the data set on PANC-1 [6] came to 88.2%. Moreover, in the data set on PANC-1 [7], the Activity turned out to be 4.5%.
